What was measured:
hOAT3 = target: T1, hOAT3 (Homo sapiens, UniProt Q8TCC7); experiment: Inhibition of hOAT3-mediated E3S uptake, stably transfected 293 cells; assay type: cell-based; conditions: substrate 3 µM E3S, median (95% CI)
T1 construct: expressed in transfected cells; host or cells: HEK-293 (293) cells, pEBTetD plasmid, doxycycline-induced
T1 sequence (Q8TCC7 1-542): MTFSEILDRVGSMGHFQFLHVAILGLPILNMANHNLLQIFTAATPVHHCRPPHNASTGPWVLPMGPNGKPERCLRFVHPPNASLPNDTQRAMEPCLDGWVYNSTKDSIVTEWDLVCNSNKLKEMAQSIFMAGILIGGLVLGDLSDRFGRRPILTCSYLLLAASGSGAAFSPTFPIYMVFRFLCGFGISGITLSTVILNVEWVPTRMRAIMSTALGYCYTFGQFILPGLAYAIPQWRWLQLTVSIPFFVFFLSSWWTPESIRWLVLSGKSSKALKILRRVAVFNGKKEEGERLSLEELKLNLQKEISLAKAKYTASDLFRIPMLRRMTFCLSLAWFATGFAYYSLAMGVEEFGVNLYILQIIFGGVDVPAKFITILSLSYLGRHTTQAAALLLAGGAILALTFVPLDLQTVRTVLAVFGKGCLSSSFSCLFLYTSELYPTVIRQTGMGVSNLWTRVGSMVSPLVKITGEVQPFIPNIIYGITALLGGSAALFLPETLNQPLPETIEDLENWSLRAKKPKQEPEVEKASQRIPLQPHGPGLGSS
Text: We characterized the inhibitory potential of iohexol on major drug transporters recommended by regulatory agencies, which were previously assessed in a clinical transporter phenotyping cocktail study. These transporters include hOAT1, hOAT3, hOCT1, hOCT2, hMATE1, hMATE2K, human organic anion transporter polypeptides (hOATP)1B1, hOATP1B3, and human multidrug resistance protein (hMDR)1. Additionally, we investigated whether iohexol is a substrate for any of the renal transporters among these, including hOAT1/3, hOCT1/2, and hMATE1/2K. Cell‐based uptake assays were used to assess the activities of hOAT1/3, hOCT1/2, hMATE1/2K, and hOATP1B1/1B3. Inside‐out membrane vesicle uptake assays were used to evaluate the activity of hMDR1.
To determine the maximal inhibitory potential of iohexol, intracellular accumulation of a standard substrate was measured with and without the clinically relevant highest concentrations of iohexol. Control inhibitors were tested in each experiment.
In all subsequent in vitro studies, control experiments were conducted to validate the results. These included positive controls for substrates and inhibitors, as well as cells either without transporter expression or transfected with an empty vector, and control vesicles. Each condition, including cells or vesicles with the transporter and their respective controls, was analyzed in at least three replicates. For detailed information on materials, methods, and data analysis techniques used, refer to the Supporting Information. […]
R version 4.2.1 (R Foundation for Statistical Computing, Vienna, Austria) was used for statistical evaluations and data visualization. The data analysis approach for the in vitro study was detailed by Hsin CH et al..^1 In brief, for transport assays, the initial uptake rate was calculated by normalizing the substrate concentration to both the protein concentration and the incubation time for each dish or well. The transporter-mediated uptake rate (net uptake) was determined by performing an element-wise subtraction of uptake rates from different conditions. […]

[1] = Clinical trial in healthy volunteers, adverse events; assay type: in vivo, human; conditions: 12 healthy subjects, single i.v. doses 259 mg and 3235 mg
Protocol: The trial had two separate objectives, that is, (i) to assess dose linearity of iohexol pharmacokinetics for a lower dose (reported here) and (ii) to improve the assessment of creatinine volume of distribution by oral administration of creatinine in beef meat (will be reported separately). Building on the PK findings from a 3235 mg iohexol injection, we determined that the current quantification method is sufficiently sensitive to measure iohexol plasma concentrations corresponding to doses over 10 times lower, up to at least 20 h postadministration. Therefore, a 259 mg iohexol dose was selected for this study. […] Each participant was randomly assigned to one of six sequences, receiving iohexol intravenously at different single doses on separate occasions: (1) 259 mg iohexol without beef ingestion (defined as “fasting,” “test”); (2) 3235 mg iohexol fasting (“reference”); and (3) 3235 mg iohexol with beef ingestion (not reported here). The washout interval between administrations was 7 to 14 days. Adverse events were surveyed until the completion of the study.
Adverse events were monitored at multiple time points: within 1 hour before the administration of iohexol, and then at 10 minutes, 30 minutes, 1 hour, and 2 hours post-dose, as well as at the end of hospitalization for each period and during the end-of-study evaluation. Vital signs were recorded at the same time points as adverse events. Overall health was reassessed at the end of the study.

[2] = parameters: method as in PMID 27679715; conditions: cited from earlier work

Inhibitory effect (% reduction of specific activity) (hOAT3; 20 mM iohexol): no notable inhibitory effects
inhibition at 1000 µM (hOAT3; HEK293, 1 mM iohexol, read-out: Inhibitory effect (% reduction of specific activity)): -4%
inhibition at 20000 µM (hOAT3; HEK293, 20 mM iohexol, read-out: Inhibitory effect (% reduction of specific activity)): -3.5%
SMILES: CC(=O)N(CC(O)CO)c1c(I)c(C(=O)NCC(O)CO)c(I)c(C(=O)NCC(O)CO)c1I (stereo not shown) [iohexol]
Adverse events related to iohexol [1]: None of these were related to iohexol
Number of adverse events reported [1]: 9
Subjects reporting adverse events [1]: 7 of 12
Plasma protein binding [2]: 1.5%

From PMC11788587, “Validating Low‐Dose Iohexol as a Marker for Glomerular Filtration Rate by In Vitro and In Vivo Studies” (Clinical and Translational Science, 2025)
